# Measurements taken from patent US20110059869A1, “Method for Increasing Enzymatic Reactivity” (RIKEN, priority 2008, published 2011).
# What was measured:
# Format in all cases: biochemical
# [1] = tested on: DNA polymerase; assay: 454 sequencing system, emulsion PCR on beads
# Protocol: In the 454 sequencing system (Scheme 10), a DNA template was adsorbed onto spherical beads, immobilized, and subjected to enveloped amplification in a water-in-oil emulsion (emulsion PCR). Accordingly, the change in the sequencing analysis level when trehalose was added in emulsion PCR was examined.
# In emulsion PCR, DNA is bonded by complementarily interaction with oligoprimer immobilized on beads and enveloped in a water-in-oil emulsion to form microreactors each comprised of a single bead and a single DNA fragment. An amplification reaction based on the DNA polymerase results in the amplification of each DNA fragment into several million copies per bead. Trehalose was added to a final concentration of 0.6 M to the reaction solution and the amplification reaction was conducted to examine the effect on the sequence analysis results (Scheme 11).
# The samples employed were DNA fragments that had been obtained by PCR amplification of cDNA obtained by reverse transcription of short RNA (FIG. 11). The results obtained by this reaction are shown in FIGS. 12, 13, and 14, as well as in Table 2.
# In the 454 sequencing system described in 11 above, trehalose was added to a final concentration of […] to the reaction solution, an amplification reaction was conducted, and the effect on the level of sequencing was examined.
# [2] = tested on: E. coli DNA ligase, E. coli DNA polymerase I, E. coli RNaseH; assay: Double-stranded cDNA synthesis (Gubler-Hoffman method) on cDNA/RNA hybrid adsorbed to streptavidin beads; settings: 0.6 M trehalose, 3 hours at 16° C.
# Protocol: RNA was reverse transcribed with Unique oligo-dT having various restriction enzyme sites. The cDNA/RNA hybrids obtained were used while still adsorbed to the beads to conduct a double-strand synthesis reaction by the Gubler-Hoffman method as set forth below.
# A 15 ug quantity of 5′ end biotin-labeled primer (Seq. ID No. 3) for reverse transcription was employed for 12 ug of total RNA (mouse embryo, 17.5, female). Reverse transcription reaction solution (1× GC buffer (Takara), 0.3 mM dNTP mix, saturated sorbitol/trehalose solution 30 uL, M-MLV 3,000 units) was added α[32P]dGTP was added, and the mixture was reacted for 30 minutes at 42° C., 10 minutes at 50° C., and 10 minutes at 56° C. Following reaction with proteinase K, the mixture was precipitated from CTAB/urea and redissolved in 7 M Gu-HCl. EtOH precipitation was then conducted. […]
# Streptavidin beads on which was adsorbed cDNA/RNA hybrid were washed once with double-stranded synthesis-use reaction buffer ([…], Invitrogen). […] The mixture was washed three times with 1× binding buffer and measured with a liquid scintillation counter. The synthesis rate of double-stranded cDNA and the yield were calculated (Scheme 1).
# [3] = tested on: XhoI, PstI, HindIII, and EcoRI; assay: DNA cleavage reactions by various restriction enzymes on bead and plate surfaces; settings: 0.6 M trehalose vs none, all enzymes
# Protocol: Differences in activity based on the type of enzyme in reactions under conditions where trehalose was present and absent and for various reactions surface shapes were examined. XhoI, PstI, HindIII, and EcoRI were employed as restriction enzymes to conduct reactions cleaving the same site on a DNA fragment with different enzymes (Scheme 8).
# Cleavage reactions by various restriction enzymes were conducted on biotin-labeled DNA fragments I, II, and III (Seq. ID Nos. 4 to 6, Scheme 4) on bead surfaces. […] Paramagnetic streptavidin beads were washed with accessory 1× binding buffer, recovered with a magnetic stand to remove the supernatant, and suspended in the same buffer. […] The precipitate of DNA fragments obtained was dissolved in 1× TE (pH 7.5) and analyzed with Bioanalyzer DNA 1000 assay (Agilent Technologies).
# Biotin-labeled DNA fragments II and III (Seq. ID Nos. 5 and 6, Scheme 4) were subjected to cleavage reactions by different restriction enzymes on horizontal streptavidin-coated plate surfaces. […] The precipitate of DNA fragments obtained was dissolved in 1× TE (pH 7.5) and analyzed with Bioanalyzer DNA 1000 assay (Agilent Technologies).
# [4] = 0.3 M trehalose in emulsion PCR vs none
# [5] = 0.6 M trehalose in emulsion PCR
# [6] = trehalose 0.6 M in emulsion PCR, Region 2
smiles,measurement,setting,value
"OC[C@H]1O[C@H](O[C@H]2O[C@H](CO)[C@@H](O)[C@H](O)[C@H]2O)[C@H](O)[C@@H](O)[C@@H]1O [trehalose, D(+)-trehalose]",long fragments (sequence length),[1]; [4],increase in long fragments
same,number of sequences,[1]; [4],increased the number of sequences
same,short fragments (sequence length),[1]; [4],reduction in short fragments
same,DNA amplification wells,[1]; 0.6 M trehalose (+) compared to trehalose (−),increasing the DNA amplification wells
same,number of sequences and size of the regions that were decoded,[1]; 0.6 M trehalose (+) relative to trehalose (−),increasing the number of sequences and the size of the regions that were decoded
same,"number of sequences read in sample DNA, increase relative to no trehalose",[1]; [5],about 1.6 fold
same,target regions contained in DNA fragments (tags) analyzed,[1]; [5],more target regions were contained
same,Keypass Wells,[1]; [6],"341,546"
same,Passed Filter Wells,[1]; [6],"207,398"
same,Raw Wells,[1]; [6],"364,898"
same,"double-stranded cDNA synthesis rate, increase over trehalose (−) conditions",[2],1.25 fold
same,enzymatic activity in cleavage reactions,[3],increased activity
